Measurements: patent US8748614B2, “Substituted isoquinoline and isoquinolinone derivatives” (Sanofi, priority 2006, dated 2014)
Counter-ions that a name gives are not always drawn.

target: T1, human recombinant ROCK II (Homo sapiens, UniProt O75116); experiment: Determination of Rho Kinase Inhibition (ROCK II, Caliper peptide phosphorylation assay); format: biochemical; conditions: 60 min incubation at 32° C., respective form (salt or free base) as obtained in the examples
T1 construct: recombinant human ROCK-II residues 11-552; His6 (N); purchased Upstate Ltd., Dundee, UK
T1 sequence (O75116 11-552): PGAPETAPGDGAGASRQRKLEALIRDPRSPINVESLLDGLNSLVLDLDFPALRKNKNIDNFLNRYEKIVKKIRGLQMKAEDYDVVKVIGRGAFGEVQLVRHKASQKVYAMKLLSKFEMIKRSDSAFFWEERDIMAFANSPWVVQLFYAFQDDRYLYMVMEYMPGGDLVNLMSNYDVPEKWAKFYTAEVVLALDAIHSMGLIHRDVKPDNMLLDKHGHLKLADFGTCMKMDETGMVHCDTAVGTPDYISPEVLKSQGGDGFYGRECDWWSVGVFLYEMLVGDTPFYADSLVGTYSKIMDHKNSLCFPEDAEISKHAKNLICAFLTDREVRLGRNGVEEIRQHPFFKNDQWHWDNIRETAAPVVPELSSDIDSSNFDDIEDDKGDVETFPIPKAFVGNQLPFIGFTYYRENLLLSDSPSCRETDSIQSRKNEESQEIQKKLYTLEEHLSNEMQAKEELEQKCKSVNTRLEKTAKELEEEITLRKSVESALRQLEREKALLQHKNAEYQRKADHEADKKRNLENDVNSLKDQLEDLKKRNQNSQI
Procedure: Determination of Rho Kinase Inhibition
To measure Rho-kinase inhibition, IC50 values were determined according to the following protocol:
Active human recombinant ROCK II (N-terminal His6-tagged recombinant human ROCK-II residues 11-552) was purchased from Upstate Ltd., Dundee, UK. The peptide substrate, Fluorescein-AKRRRLSSLRA-COOH, was obtained from JPT Peptide Technologies, Berlin, Germany. Adenosine-5′-triphosphate (ATP), bovine serum albumine (BSA), dimethylsulphoxide (DMSO), 4-(2-Hydroxyethyl)piperazine-1-ethanesulfonic acid (Hepes), Brij-35 and dithiothreitol (DTT) were purchased from Sigma-Aldrich, Munich, Germany. Tris(hydroxymethyl)-aminomethane (Tris), magnesium chloride, NaOH, 1M HCl and EDTA were obtained from Merck Biosciences, Darmstadt, Germany. “Complete” protease inhibitor was from Roche Diagnostics, Mannheim, Germany.
Test compounds were diluted to the appropriate concentrations in buffer 1 (25 mM Tris-HCl, pH 7.4, 5 mM MgCl2, 2 mM DTT, 0.02% (w/v) BSA and 3% DMSO). The ROCK II enzyme was diluted to a concentration of 100 ng/ml in buffer 2 (25 mM Tris-HCl, pH 7.4, 5 mM MgCl2, 2 mM DTT and 0.02% (w/v) BSA). The peptide substrate and ATP were diluted to concentrations of 3 μM and 120 μM, respectively, in the buffer 2. Two μl of the compound solution were mixed with 2 μl of the diluted enzyme in a 384-well small volume microtiter plate (Greiner, Bio-One, Frickenhausen, Germany), and the kinase reaction was initiated by addition of 2 μl of the solution containing peptide substrate and ATP. After 60 min incubation at 32° C., the reaction was stopped by addition of 20 μl of a solution containing 100 mM Hepes-NaOH, pH 7.4, 0.015% (v/v) Brij-35, 45 mM EDTA and 0.227% chip coating reagent 1 (Caliper Lifescience Inc, Hopkinton, Mass.). Phosphorylation of the substrate peptide was then detected on a Caliper 3000 instrument essentially as described by Pommereau et al (J. Biomol. Screening 9(5), 409-416, 2004). Separation conditions were as follows: Pressure −1.3 psi, upstream voltage −1562 V, downstream voltage −500 V, sample sip time 200 ms. Positive controls (buffer 1 instead of compound) and negative controls (buffer 1 instead of compound and buffer 2 instead of ROCK II) were run in parallel on each plate. The following products/compounds were tested in said assay by using the respective form (salt or free base) obtained as in the examples described above and the following activities were measured.

Row | SMILES | IC50
1 | Cc1ccc(CN2CC[C@H](Nc3ccc4c(=O)[nH]ccc4c3)C2)cc1 [Example 236, 6-[(S)-1-(4-Methyl-benzyl)-pyrrolidin-3-ylamino]-2H-isoquinolin-1-one] | ≤ 1000 nM
2 | O=c1[nH]ccc2cc(N[C@H]3CCN(Cc4ccc5ccccc5c4)C3)ccc12 [Example 243, 6-((S)-1-Naphthalen-2-ylmethyl-pyrrolidin-3-ylamino)-2H-isoquinolin-1-one] | ≤ 1000 nM
3 | Clc1cc2cnccc2cc1SCC1CCNCC1 [Example 279, 7-Chloro-6-(piperidin-4-ylmethylsulfanyl)-isoquinoline hydrochloride] | 1000 to 10000 nM
4 | O=c1[nH]ccc2cc(N[C@@H]3CCCN(Cc4ccc5ccccc5c4)C3)ccc12 [Example 218, 6-((R)-1-Naphthalen-2-ylmethyl-piperidin-3-ylamino)-2H-isoquinolin-1-one] | ≤ 1000 nM
5 | CN(c1ccc2cnccc2c1)C1CCN(CCC(F)(F)F)CC1 [Example 99, Isoquinolin-6-yl-methyl-[1-(3,3,3-trifluoro-propyl)-piperidin-4-yl]-amine] | 1000 to 10000 nM
6 | O=c1[nH]ccc2cc(N[C@H]3CCN(Cc4cc(Cl)cc(Cl)c4)C3)ccc12 [Example 234, 6-[(S)-1-(3,5-Dichloro-benzyl)-pyrrolidin-3-ylamino]-2H-isoquinolin-1-one] | 1000 to 10000 nM
7 | CCCN1CCC[C@@H](Nc2ccc3c(=O)[nH]ccc3c2)C1 [Example 195, 6-((R)-1-Propyl-piperidin-3-ylamino)-2H-isoquinolin-1-one] | 1000 to 10000 nM
8 | O=c1[nH]ccc2cc(N[C@@H]3CCCN(Cc4ccccn4)C3)ccc12 [Example 215, 6-((R)-1-Pyridin-2-ylmethyl-piperidin-3-ylamino)-2H-isoquinolin-1-one] | 1000 to 10000 nM
9 | CCCc1cc2cnccc2cc1SC1CCNCC1 [Example 277, 6-(Piperidin-4-ylsulfanyl)-7-propyl-isoquinoline hydrochloride] | ≤ 1000 nM
10 | O=c1[nH]ccc2cc(N[C@H]3CCN(CC4CCCNC4)C3)ccc12 (stereo partly drawn) [Example 248, 6-((S)-1-Piperidin-3-ylmethyl-pyrrolidin-3-ylamino)-2H-isoquinolin-1-one] | 1000 to 10000 nM
11 | CCCCN1CCC[C@@H](Nc2ccc3c(=O)[nH]ccc3c2)C1 [Example 196, 6-((R)-1-Butyl-piperidin-3-ylamino)-2H-isoquinolin-1-one] | ≤ 1000 nM
12 | O=c1[nH]ccc2cc(N[C@@H]3CCCN(Cc4ccccc4)C3)ccc12 [Example 207, 6-((R)-1-Benzyl-piperidin-3-ylamino)-2H-isoquinolin-1-one] | ≤ 1000 nM
13 | Cn1cc(CN2CC[C@H](Nc3ccc4c(=O)[nH]ccc4c3)C2)cn1 [Example 246, 6-[(S)-1-(1-Methyl-1H-pyrazol-4-ylmethyl)-pyrrolidin-3-ylamino]-2H-isoquinolin-1-one] | 1000 to 10000 nM
14 | O=c1[nH]ccc2cc(NC3CN(Cc4ccccc4Cl)C3)ccc12 [Example 259, 6-[1-(2-Chloro-benzyl)-azetidin-3-ylamino]-2H-isoquinolin-1-one] | ≤ 1000 nM
15 | O=c1[nH]ccc2cc(NC3CN(CC4CC4)C3)ccc12 [Example 253, 6-(1-Cyclopropylmethyl-azetidin-3-ylamino)-2H-isoquinolin-1-one] | 1000 to 10000 nM
16 | O=c1[nH]ccc2cc(SC3CCNCC3)c(Cl)cc12 [Example 286, 7-Chloro-6-(piperidin-4-ylsulfanyl)-2H-isoquinolin-1-one hydrochloride] | ≤ 1000 nM
17 | CC(C)CCN1CCC[C@@H](Nc2ccc3c(=O)[nH]ccc3c2)C1 [Example 199, 6-[(R)-1-(3-Methyl-butyl)-piperidin-3-ylamino]-2H-isoquinolin-1-one] | ≤ 1000 nM
18 | c1cc2cc(N[C@@H]3CCCN(CC4CC4)C3)ccc2cn1 [Example 166, ((R)-1-Cyclopropylmethyl-piperidin-3-yl)-isoquinolin-6-yl-amine] | 1000 to 10000 nM
19 | c1cc2cc(N[C@@H]3CCCN(CC4CCCCC4)C3)ccc2cn1 [Example 169, ((R)-1-Cyclohexylmethyl-piperidin-3-yl)-isoquinolin-6-yl-amine] | 1000 to 10000 nM
20 | O=c1[nH]ccc2cc(N[C@H]3CCN(CC4CC4)C3)ccc12 [Example 226, 6-((S)-1-Cyclopropylmethyl-pyrrolidin-3-ylamino)-2H-isoquinolin-1-one] | ≤ 1000 nM
21 | CC(C)N1CC(Nc2ccc3c(=O)[nH]ccc3c2)C1 [Example 251, 6-(1-Isopropyl-azetidin-3-ylamino)-2H-isoquinolin-1-one] | 1000 to 10000 nM
22 | O=c1[nH]ccc2cc(NC3CN(Cc4cccc(Cl)c4F)C3)ccc12 [Example 249, 6-[1-(3-Chloro-2-fluoro-benzyl)-azetidin-3-ylamino]-2H-isoquinolin-1-one] | ≤ 1000 nM
23 | O=c1[nH]ccc2cc(S(=O)(=O)C3CCNCC3)c(Cl)cc12 [Example 288, 7-Chloro-6-(piperidine-4-sulfonyl)-2H-isoquinolin-1-one hydrochloride] | ≤ 1000 nM
24 | O=c1[nH]ccc2cc(N[C@H]3CCN(Cc4cccc(Cl)c4F)C3)ccc12 [Example 220, 6-[(S)-1-(3-Chloro-2-fluoro-benzyl)-pyrrolidin-3-ylamino]-2H-isoquinolin-1-one] | ≤ 1000 nM
25 | O=c1[nH]ccc2cc([S+]([O-])C3CCNCC3)c(Cl)cc12 (stereo not shown) [Example 290, 7-Chloro-6-(piperidine-4-sulfinyl)-2H-isoquinolin-1-one hydrochloride] | 1000 to 10000 nM
26 | Clc1cc2cnccc2cc1SC1CCCNC1 (racemic) [Example 269, (Rac)-7-Chloro-6-(piperidin-3-ylsulfanyl)-isoquinoline hydrochloride] | ≤ 1000 nM
27 | Brc1cc2cnccc2cc1SC1CCCNCC1 (racemic) [Example 271, (Rac)-6-(Azepan-4-ylsulfanyl)-7-bromo-isoquinoline hydrochloride] | ≤ 1000 nM
28 | O=c1[nH]ccc2cc(N[C@@H]3CCCN(Cc4ccncc4)C3)ccc12 [Example 213, 6-((R)-1-Pyridin-4-ylmethyl-piperidin-3-ylamino)-2H-isoquinolin-1-one] | 1000 to 10000 nM
